In patent publication US10626144B2, “Peptide derivatives and uses thereof” (Nosopharm, priority 2014, dated 2020):
Numbered stars: 1 amine (or outer) side, 2 acyl side, 3 side chain; on linkers, the order of the positions; unused ones are H or OH. Square brackets hold non-standard residues; d marks the D form. Peptide text beside a SMILES is read from it. * marks the point of attachment. Pro(trans-4-F) = O=C(O)[C@@H]1C[C@@H](F)CN1; Dab(3S-OH) = NC[C@H](O)[C@H](N)C(=O)O; 3Pal = N[C@@H](Cc1cccnc1)C(=O)O; 4Pal = N[C@@H](Cc1ccncc1)C(=O)O; ΔZArg = N=C(N)NCC/C=C(\N)C(=O)O; Lys(Me) = CNCCCC[C@H](N)C(=O)O; NMeK = CN[C@@H](CCCCN)C(=O)O; X2 = CC=C(N[*:1])C(=O)[*:2]; dOrn = NCCC[C@@H](N)C(=O)O; Pip = O=C(O)[C@@H]1CCCCN1; NMeA = CN[C@@H](C)C(=O)O; NH(CH2)5NH2 = NCCCCCN*; NH(CH2)4NH2 = NCCCCN*

Assays:
Assay in all cases: MIC, broth microdilution (CLSI), reference strain
Details in all cases: CAMHB
[1] = system: Pseudomonas aeruginosa ATCC 27853
[2] = system: Escherichia coli ATCC 25922
[3] = system: Staphylococcus aureus ATCC 13709
[4] = system: Acinetobacter baumannii ATCC 19606

| SMILES | Pa: MIC Pseudomonas aeruginosa ATCC 27853 [1] | Ec: MIC Escherichia coli ATCC 25922 [2] | Sa: MIC Staphylococcus aureus ATCC 13709 [3] | Ab: MIC Acinetobacter baumannii ATCC 19606 [4] |
| --- | --- | --- | --- | --- |
| C[C@H](NC(=O)[C@@H](NC(=O)[C@@H](N)CCCCN)[C@@H](O)CN)C(=O)NCC(=O)N[C@H](CCCN)C(=O)N1CCC[C@H]1C(=O)N[C@@H](Cc1cnc[nH]1)C(=O)N[C@@H](CCCCN)C(=O)N/C(=C\CCNC(=N)N)C(=O)N[C@@H](CCCCN)C(N)=O [24.2] (H-K[Dab(3S-OH)]AG[dOrn]PHK[ΔZArg]K-NH2) | + (≤32 μg/mL) | ++ (≤8 μg/mL) | ++ (≤8 μg/mL) | − (>32 μg/mL) |
| C[C@H](NC(=O)[C@@H](NC(=O)[C@@H](N)CCCCN)[C@@H](O)CN)C(=O)NCC(=O)N[C@H](CCCN)C(=O)N1CCCC[C@H]1C(=O)N[C@@H](Cc1cnc[nH]1)C(=O)N[C@@H](CCCCN)C(=O)N/C(=C\CCNC(=N)N)C(=O)N[C@@H](CCCCN)C(=O)NCCCCN [24.3] (H-K[Dab(3S-OH)]AG[dOrn][Pip]HK[ΔZArg]K-{NH(CH2)4NH2}) | + (≤32 μg/mL) | ++ (≤8 μg/mL) | ++ (≤8 μg/mL) | − (>32 μg/mL) |
| C[C@H](NC(=O)[C@@H](NC(=O)[C@@H](N)CCCCN)[C@@H](O)CN)C(=O)NCC(=O)N[C@H](CCCN)C(=O)N1C[C@H](F)C[C@H]1C(=O)N[C@@H](Cc1cnc[nH]1)C(=O)N[C@@H](CCCCN)C(=O)N/C(=C\CCNC(=N)N)C(=O)N[C@@H](CCCCN)C(=O)NCCCCN [24.4] (H-K[Dab(3S-OH)]AG[dOrn][Pro(trans-4-F)]HK[ΔZArg]K-{NH(CH2)4NH2}) | + (≤32 μg/mL) | ++ (≤8 μg/mL) | ++ (≤8 μg/mL) | + (≤32 μg/mL) |
| C[C@H](NC(=O)[C@@H](NC(=O)[C@@H](N)CCCCN)[C@@H](O)CN)C(=O)NCC(=O)N[C@H](CCCN)C(=O)N1CCC[C@H]1C(=O)N[C@@H](Cc1cnc[nH]1)C(=O)N[C@@H](CCCCN)C(=O)N/C(=C\CCNC(=N)N)C(=O)N[C@@H](CCCCN)C(=O)NCCCCCN [24.6] (H-K[Dab(3S-OH)]AG[dOrn]PHK[ΔZArg]K-{NH(CH2)5NH2}) | ++ (≤8 μg/mL) | ++ (≤8 μg/mL) | ++ (≤8 μg/mL) | + (≤32 μg/mL) |
| C[C@H](NC(=O)/C(=C/CCNC(=N)N)NC(=O)[C@H](CCCCN)NC(=O)[C@H](Cc1cnc[nH]1)NC(=O)[C@@H]1CCCN1C(=O)[C@@H](CCCN)NC(=O)CNC(=O)[C@H](C)NC(=O)[C@@H](NC(=O)[C@@H](N)CCCCN)[C@@H](O)CN)C(N)=O [24.7] (H-K[Dab(3S-OH)]AG[dOrn]PHK[ΔZArg]A-NH2) | − (>32 μg/mL) | ++ (≤8 μg/mL) | ++ (≤8 μg/mL) | − (>32 μg/mL) |
| CC=C(NC(=O)[C@H](CCCCN)NC(=O)[C@H](Cc1cnc[nH]1)NC(=O)[C@@H]1CCCN1C(=O)[C@@H](CCCN)NC(=O)CNC(=O)[C@H](C)NC(=O)[C@@H](NC(=O)[C@@H](N)CCCCN)[C@@H](O)CN)C(=O)N[C@@H](CCCCN)C(=O)NCCCCN [24.8] (H-K[Dab(3S-OH)]AG[dOrn]PHK[X2]K-{NH(CH2)4NH2}) | − (>32 μg/mL) | + (≤32 μg/mL) | ++ (≤8 μg/mL) | − (>32 μg/mL) |
| CC(=O)NCCCC[C@H](N)C(=O)N[C@H](C(=O)N[C@@H](C)C(=O)NCC(=O)N[C@H](CCCN)C(=O)N1CCC[C@H]1C(=O)N[C@@H](Cc1cnc[nH]1)C(=O)N[C@@H](CCCCN)C(=O)N/C(=C\CCNC(=N)N)C(=O)N[C@@H](CCCCN)C(=O)NCCCCN)[C@@H](O)CN [24.9] (H-K(Ac)[Dab(3S-OH)]AG[dOrn]PHK[ΔZArg]K-{NH(CH2)4NH2}) | − (>32 μg/mL) | − (>32 μg/mL) | + (≤32 μg/mL) | − (>32 μg/mL) |
| C[C@H](NC(=O)[C@@H](NC(=O)[C@@H](N)CCCCN)[C@@H](O)CN)C(=O)NCC(=O)N[C@H](CCCN)C(=O)N1CCC[C@H]1C(=O)N[C@@H](Cc1cccnc1)C(=O)N[C@@H](CCCCN)C(=O)N/C(=C\CCNC(=N)N)C(=O)N[C@@H](CCCCN)C(=O)NCCCCN [24.18] (H-K[Dab(3S-OH)]AG[dOrn]P[3Pal]K[ΔZArg]K-{NH(CH2)4NH2}) | − (>32 μg/mL) | ++ (≤8 μg/mL) | ++ (≤8 μg/mL) | − (>32 μg/mL) |
| C[C@H](NC(=O)[C@@H](NC(=O)[C@@H](N)CCCCN)[C@@H](O)CN)C(=O)NCC(=O)N[C@H](CCCN)C(=O)N1CCC[C@H]1C(=O)N[C@@H](Cc1ccncc1)C(=O)N[C@@H](CCCCN)C(=O)N/C(=C\CCNC(=N)N)C(=O)N[C@@H](CCCCN)C(=O)NCCCCN [24.19] (H-K[Dab(3S-OH)]AG[dOrn]P[4Pal]K[ΔZArg]K-{NH(CH2)4NH2}) | + (≤32 μg/mL) | ++ (≤8 μg/mL) | ++ (≤8 μg/mL) | − (>32 μg/mL) |
| C[C@H](NC(=O)[C@@H](NC(=O)[C@@H](N)CCCCN)[C@@H](O)CN)C(=O)NCC(=O)N[C@H](CCCN)C(=O)N1CCC[C@H]1C(=O)N[C@@H](CCC(N)=O)C(=O)N[C@@H](CCCCN)C(=O)N/C(=C\CCNC(=N)N)C(=O)N[C@@H](CCCCN)C(=O)NCCCCN [24.21] (H-K[Dab(3S-OH)]AG[dOrn]PQK[ΔZArg]K-{NH(CH2)4NH2}) | − (>32 μg/mL) | ++ (≤8 μg/mL) | ++ (≤8 μg/mL) | − (>32 μg/mL) |
| CNCCCC[C@H](N)C(=O)N[C@H](C(=O)N[C@@H](C)C(=O)NCC(=O)N[C@H](CCCN)C(=O)N1CCC[C@H]1C(=O)N[C@@H](Cc1cnc[nH]1)C(=O)N[C@@H](CCCCN)C(=O)N/C(=C\CCNC(=N)N)C(=O)N[C@@H](CCCCN)C(=O)NCCCCN)[C@@H](O)CN [24.43] (H-[Lys(Me)][Dab(3S-OH)]AG[dOrn]PHK[ΔZArg]K-{NH(CH2)4NH2}) | + (≤32 μg/mL) | ++ (≤8 μg/mL) | ++ (≤8 μg/mL) | − (>32 μg/mL) |
| CN[C@@H](CCCCN)C(=O)N[C@H](C(=O)N[C@@H](C)C(=O)NCC(=O)N[C@H](CCCN)C(=O)N1CCC[C@H]1C(=O)N[C@@H](Cc1cnc[nH]1)C(=O)N[C@@H](CCCCN)C(=O)N/C(=C\CCNC(=N)N)C(=O)N[C@@H](CCCCN)C(=O)NCCCCN)[C@@H](O)CN [24.61] (H-[NMeK][Dab(3S-OH)]AG[dOrn]PHK[ΔZArg]K-{NH(CH2)4NH2}) | + (≤32 μg/mL) | ++ (≤8 μg/mL) | ++ (≤8 μg/mL) | + (≤32 μg/mL) |
| C[C@H](NC(=O)[C@@H](NC(=O)[C@@H](N)CCCCN)[C@@H](O)CN)C(=O)NCC(=O)N[C@H](CCCN)C(=O)N1CCC[C@H]1C(=O)N[C@@H](Cc1cnc[nH]1)C(=O)N[C@@H](CCCCN)C(=O)N/C(=C\CCNC(=N)N)C(=O)N[C@@H](CCCCN)C(=O)O [24.62] (H-K[Dab(3S-OH)]AG[dOrn]PHK[ΔZArg]K-OH) | − (>32 μg/mL) | + (≤32 μg/mL) | ++ (≤8 μg/mL) | − (>32 μg/mL) |
| CN[C@@H](CCCCN)C(=O)N[C@H](C(=O)N[C@@H](C)C(=O)NCC(=O)N[C@H](CCCN)C(=O)N1CCC[C@H]1C(=O)N[C@@H](Cc1cnc[nH]1)C(=O)N[C@@H](CCCCN)C(=O)N/C(=C\CCNC(=N)N)C(N)=O)[C@@H](O)CN [24.63] (H-[NMeK][Dab(3S-OH)]AG[dOrn]PHK[ΔZArg]-NH2) | − (>32 μg/mL) | ++ (≤8 μg/mL) | ++ (≤8 μg/mL) | − (>32 μg/mL) |
| CNCCCC[C@H](N)C(=O)N[C@H](C(=O)N[C@@H](C)C(=O)NCC(=O)N[C@H](CCCN)C(=O)N1CCC[C@H]1C(=O)N[C@@H](Cc1cnc[nH]1)C(=O)N[C@@H](CCCCN)C(=O)N/C(=C\CCNC(=N)N)C(N)=O)[C@@H](O)CN [24.64] (H-[Lys(Me)][Dab(3S-OH)]AG[dOrn]PHK[ΔZArg]-NH2) | − (>32 μg/mL) | ++ (≤8 μg/mL) | ++ (≤8 μg/mL) | − (>32 μg/mL) |
| C[C@H](NC(=O)[C@@H](NC(=O)[C@@H](N)CCCCN)[C@@H](O)CN)C(=O)NCC(=O)N[C@H](CCCN)C(=O)N(C)[C@@H](C)C(=O)N[C@@H](Cc1cnc[nH]1)C(=O)N[C@@H](CCCCN)C(=O)N/C(=C\CCNC(=N)N)C(N)=O [24.65] (H-K[Dab(3S-OH)]AG[dOrn][NMeA]HK[ΔZArg]-NH2) | − (>32 μg/mL) | + (≤32 μg/mL) | ++ (≤8 μg/mL) | − (>32 μg/mL) |
| C[C@H](NC(=O)[C@@H](NC(=O)[C@@H](N)CCCCN)[C@@H](O)CN)C(=O)NCC(=O)N[C@H](CCCN)C(=O)N1CCC[C@H]1C(=O)N[C@@H](Cc1cnc[nH]1)C(=O)N[C@@H](CCCCN)C(=O)N[C@H](CCCNC(=N)N)C(N)=O [24.68] (H-K[Dab(3S-OH)]AG[dOrn]PHK[dR]-NH2) | − (>32 μg/mL) | + (≤32 μg/mL) | ++ (≤8 μg/mL) | − (>32 μg/mL) |
